25 compounds from ChEMBL document CHEMBL1125902, “2-aralkoxyadenosines: potent and selective agonists at the coronary artery A2 adenosine receptor” (J Med Chem, 1991) can be followed below.

Assay [1] concerns the target T1, Adenosine receptor A1 (Cavia porcellus, UniProt P47745).
T1 sequence (P47745 whole entry): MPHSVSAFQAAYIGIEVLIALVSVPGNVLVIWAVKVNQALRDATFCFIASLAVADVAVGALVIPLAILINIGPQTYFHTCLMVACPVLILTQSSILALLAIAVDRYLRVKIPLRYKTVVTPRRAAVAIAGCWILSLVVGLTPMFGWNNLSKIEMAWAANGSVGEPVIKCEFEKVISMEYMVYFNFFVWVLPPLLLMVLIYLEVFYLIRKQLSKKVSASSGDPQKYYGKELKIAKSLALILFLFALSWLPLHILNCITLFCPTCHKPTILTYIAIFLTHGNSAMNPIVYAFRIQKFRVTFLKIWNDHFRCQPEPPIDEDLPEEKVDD
The assay can be described thus: Effective concentration required for prolongation of the stimulus-QRS interval by 50% of the maximum response at the Adenosine A1 receptor in langendorff guinea pig heart preparation. The format is functional.

Assay [2] concerns the target T1, Adenosine receptor A1. Kind of assay: Effective concentration required for prolongation of the stimulus-QRS interval by 50% of the maximum response at the A1 adenosine receptor in langendorff guinea pig heart preparation. The format is functional.
Assay [3] addresses T2, Adenosine A2 receptor (Homo sapiens, UniProt P29275+P29274).
Description: Concentration required for coronary arteries vasodilation at the A2 adenosine receptor in langendorff guinea pig heart preparation
For assay [4], the target named is T2, Adenosine A2 receptor. The source holds these as a separate data set.
Description: Concentration required for coronary arteries vasodilation at the Adenosine A2 receptor in langendorff guinea pig heart preparation

Usually EC50 stands for the concentration giving half of the maximal effect.

On Adenosine receptor A1 [1], `Nc1nc(OCCc2ccc(Cl)cc2)nc2c1ncn2[C@H]1O[C@@H](CO)[C@H](O)[C@@H]1O` gave a concentration for a half-maximal effect (EC50) of 14.5 µM. For `Nc1nc(OCCCc2ccccc2)nc2c1ncn2[C@H]1O[C@@H](CO)[C@H](O)[C@@H]1O`, the EC50 at Adenosine receptor A1 [2] was 20 µM. The “-Log EC50” value at Adenosine A2 receptor [3] stood at 7.21. Regarding `Nc1nc(OCCc2ccccc2Cl)nc2c1ncn2C1O[C@@H](CO)[C@H](O)[C@@H]1O` (stereo partly drawn), the concentration giving a half-maximal response (EC50) at Adenosine receptor A1 [2] is 21.9 µM. The “-Log EC50” value on Adenosine A2 receptor [3] is listed as 8.26. As to `Nc1nc(OCCCCCc2ccccc2)nc2c1ncn2C1O[C@@H](CO)[C@H](O)[C@@H]1O` (stereo partly drawn), the half-maximal effective concentration (EC50) at Adenosine receptor A1 [2] was 4.57 µM. Moreover, the “-Log EC50” value on Adenosine A2 receptor [3] is listed as 8.2. Regarding `COc1cccc(CCOc2nc(N)c3ncn(C4O[C@@H](CO)[C@H](O)[C@@H]4O)c3n2)c1` (stereo partly drawn), the “-Log EC50” value on Adenosine A2 receptor [4] was found to be 8.59. In addition, a half-maximal effect at Adenosine receptor A1 [1] (EC50) was put at 16.2 µM. For `Cc1cccc(CCOc2nc(N)c3ncn(C4O[C@@H](CO)[C@H](O)[C@@H]4O)c3n2)c1` (stereo partly drawn) the same measures were 8.8 and 12.9 µM.

With `Nc1nc(OCCc2cccc3ccccc23)nc2c1ncn2C1O[C@@H](CO)[C@H](O)[C@@H]1O` (stereo partly drawn), it took 8.32 µM to reach a half-maximal effect on Adenosine receptor A1 [2] (EC50). As to `COc1cc(CCOc2nc(N)c3ncn(C4O[C@@H](CO)[C@H](O)[C@@H]4O)c3n2)cc(OC)c1OC` (stereo partly drawn), at Adenosine A2 receptor [4], the “-Log EC50” value is 7.66. The same compound had an EC50 on Adenosine receptor A1 [1] of 46.8 µM. `COc1ccccc1CCOc1nc(N)c2ncn(C3O[C@@H](CO)[C@H](O)[C@@H]3O)c2n1` (stereo partly drawn): the “-Log EC50” value on Adenosine A2 receptor [4] came to 7.5. At Adenosine receptor A1 [1], this compound showed an EC50 of 35.5 µM.

In turn, `Nc1nc(OCCc2c[nH]c3ccccc23)nc2c1ncn2C1O[C@@H](CO)[C@H](O)[C@@H]1O` (stereo partly drawn) had a 50% effective concentration (EC50) on Adenosine receptor A1 [2] of 14.1 µM. Further, at Adenosine A2 receptor [3], the “-Log EC50” value is 8.01. On to `Nc1nc(OCCCCc2ccccc2)nc2c1ncn2C1O[C@@H](CO)[C@H](O)[C@@H]1O` (stereo partly drawn), for which it took 7.08 µM to reach a half-maximal effect on Adenosine receptor A1 [2] (EC50). Further, the “-Log EC50” value on Adenosine A2 receptor [3] is 8.02. For the compound `Nc1nc(OCCc2ccsc2)nc2c1ncn2C1O[C@@H](CO)[C@H](O)[C@@H]1O` (stereo partly drawn), the “-Log EC50” value at Adenosine A2 receptor [4] stood at […]. Also, the EC50 on Adenosine receptor A1 [1] is 18.6 µM.

In the case of `COc1ccc(CCOc2nc(N)c3ncn(C4O[C@@H](CO)[C@H](O)[C@@H]4O)c3n2)cc1` (stereo partly drawn), the half-maximal effective concentration (EC50) on Adenosine receptor A1 [2] was 19.5 µM. Further, at Adenosine A2 receptor [3], the “-Log EC50” value came out at 8.85. Regarding `COc1ccc(CCOc2nc(N)c3ncn(C4O[C@@H](CO)[C@H](O)[C@@H]4O)c3n2)cc1OC` (stereo partly drawn), the “-Log EC50” value on Adenosine A2 receptor [4] turned out to be 8.31. Further, the EC50 on Adenosine receptor A1 [1] is 42.7 µM. In the case of `Nc1nc(OCCc2cccs2)nc2c1ncn2C1O[C@@H](CO)[C@H](O)[C@@H]1O` (stereo partly drawn), the “-Log EC50” value at Adenosine A2 receptor [4] is listed as 8.43. At Adenosine receptor A1 [1], this compound gave a half-maximal effective concentration (EC50) of 11.7 µM.

Take `Cc1ccc(CCOc2nc(N)c3ncn(C4O[C@@H](CO)[C@H](O)[C@@H]4O)c3n2)cc1` (stereo partly drawn): the “-Log EC50” value on Adenosine A2 receptor [4] is given as 9.72. Besides, the EC50 at Adenosine receptor A1 [1] is 7.41 µM. Regarding `Nc1nc(Oc2ccccc2)nc2c1ncn2C1O[C@@H](CO)[C@H](O)[C@@H]1O` (stereo partly drawn), at Adenosine receptor A1 [2], the EC50 was 46.8 µM. Also, the “-Log EC50” value at Adenosine A2 receptor [3] is on record as 6.38.

For the compound `Nc1nc(OCCc2cccc(Cl)c2)nc2c1ncn2C1O[C@@H](CO)[C@H](O)[C@@H]1O` (stereo partly drawn), on Adenosine A2 receptor [4], the “-Log EC50” value worked out at 8.52. On Adenosine receptor A1 [1], this compound gave an EC50 of 16.2 µM. On Adenosine receptor A1 [2], `Nc1nc(OCCc2ccccc2F)nc2c1ncn2C1O[C@@H](CO)[C@H](O)[C@@H]1O` (stereo partly drawn) had an EC50 of 35.5 µM. Also, the “-Log EC50” value on Adenosine A2 receptor [3] amounted to 8.58.

Consider `Nc1nc(OCCc2ccc3ccccc3c2)nc2c1ncn2C1O[C@@H](CO)[C@H](O)[C@@H]1O` (stereo partly drawn), for which, on Adenosine A2 receptor [4], the “-Log EC50” value is listed as 9.3. At Adenosine receptor A1 [1], this compound had an EC50 of 11.5 µM. Compound `Nc1nc(OCCc2ccc(F)cc2)nc2c1ncn2C1O[C@@H](CO)[C@H](O)[C@@H]1O` (stereo partly drawn) gave a concentration giving a half-maximal response (EC50) at Adenosine receptor A1 [2] of 25.7 µM. In addition, the “-Log EC50” value at Adenosine A2 receptor [3] turned out to be 9.06. In turn, `Nc1nc(OCCc2cccc(F)c2)nc2c1ncn2C1O[C@@H](CO)[C@H](O)[C@@H]1O` (stereo partly drawn) had an EC50 on Adenosine receptor A1 [2] of 34.7 µM. In addition, the “-Log EC50” value at Adenosine A2 receptor [3] is 8.72. On to `Nc1nc(OCc2ccccc2)nc2c1ncn2C1O[C@@H](CO)[C@H](O)[C@@H]1O` (stereo partly drawn), for which the “-Log EC50” value at Adenosine A2 receptor [4] is on record as 6.38. Moreover, at Adenosine receptor A1 [1], the midpoint of the response, the EC50, lay at 6.31 µM. On to `Nc1nc(OCCc2ccccc2)nc2c1ncn2C1O[C@@H](CO)[C@H](O)[C@@H]1O` (stereo partly drawn), for which, at Adenosine receptor A1 [2], the half-maximal effective concentration (EC50) was 20 µM. Moreover, the “-Log EC50” value at Adenosine A2 receptor [3] amounted to 8.55. As to `Cc1ccccc1CCOc1nc(N)c2ncn(C3O[C@@H](CO)[C@H](O)[C@@H]3O)c2n1` (stereo partly drawn), the “-Log EC50” value on Adenosine A2 receptor [4] is 8.42. The same compound gave a concentration giving a half-maximal response (EC50) on Adenosine receptor A1 [1] of 25.1 µM.
